Drawing on patent US9321768B2, “Indoles as respiratory syncytial virus antiviral agents” (JANSSEN SCIENCES IRELAND UC, priority 2010, dated 2016), this text covers EC50 and CC50 for nine compounds.

The subject of one data set is rgRSV224 virus. Briefly: microbe, parasite or virus in culture. It counts as cell-based, respiratory syncytial virus (RSV). As to conditions: human respiratory syncytial virus, HeLa, 72 h, read-out: WT activity EC50. The method, then: (§1) Black 96-well clear-bottom microtiter plates (Corning, Amsterdam, The Netherlands) were filled in duplicate using a customized robot system with serial 4-fold dilutions of compound in a final volume of 50 μl culture medium [RPMI medium without phenol red, 10% FBS, 0.04% gentamycin (50 mg/ml) and 0.5% DMSO]. Then, 100 μl of a HeLa cell suspension (5×10^4 cells/ml) in culture medium was added to each well followed by the addition of 50 μl rgRSV224 (MOI=0.02) virus in culture medium using a multidrop dispenser (Thermo Scientific, Erembodegem, Belgium). rgRSV224 virus is an engineered virus that includes an additional GFP gene (Hallak et al, 2000) and was in-licensed from the NIH (Bethesda, Md., USA). Medium, virus- and mockinfected controls were included in each test. Cells were incubated at 37° C. in a 5% CO2 atmosphere. Three days post-virus exposure, viral replication was quantified by measuring GFP expression in the cells by a MSM laser microscope (Tibotec, Beerse, Belgium). The EC50 was defined as the 50% inhibitory concentration for GFP expression. In parallel, compounds were incubated for three days in a set of white 96-well microtitier plates (Corning) and the cytotoxicity of compounds in HeLa cells was determined by measuring the ATP content of the cells using the ATPlite kit (PerkinElmer, Zaventem, Belgium) according to the manufacturer's instructions. The CC50 was defined as the 50% concentration for cytotoxicity.

A short description of data set [1]: Cytotoxicity in HeLa cells, ATP content (ATPlite kit). It counts as cell-based. As to conditions: human. The method, then: as §1
[2] abbreviates: HeLa cells, three days incubation, ATP content, read-out: Toxicity CC50.

Read-outs that look alike come from different tables or passages of the source. A value given as a limit tells only on which side of the number the result lay.

A word on the EC50: it is the concentration needed to bring the measured effect to its halfway point. One may read the CC50 as the concentration that lowers cell viability or growth by half. For `CS(=O)(=O)CCCn1c(Cn2c(=O)n(C3CC3)c3ccc(F)cc32)cc2cc(Br)ccc21` [Compound 6, 3-((5-Bromo-1-(3-(methylsulfonyl)propyl)-1H-indol-2-yl)methyl)-1-cyclopropyl-5-fluoro-1H-benzo[d]imidazol-2(3H)-one], the EC50 in the data set on rgRSV224 virus came out at 1.6 nM. The same compound showed a CC50 at 3 days in data set [1] greater than 9840 nM.

Regarding `O=c1n(Cc2cc3cc(F)ccc3n2CCCCO)c2cnccc2n1C1CC1` [Compound 9, 1-Cyclopropyl-3-((5-fluoro-1-(4-hydroxybutyl)-1H-indol-2-yl)methyl)-1H-imidazo[4,5-c]pyridin-2(3H)-one], in the data set with rgRSV224 virus, the concentration giving a half-maximal response (EC50) was 29.4 nM. The compound further displayed a CC50 at 3 days in data set [1] of 50300 nM.

`CS(=O)(=O)CCCn1c(Cn2c(=O)n(C3COC3)c3ccncc32)cc2cc(Br)ccc21` [Compound 5, 3-((5-Bromo-1-(3-(methylsulfonyl)propyl)-1H-indol-2-yl)methyl)-1-(oxetan-3-yl)-1H-imidazo[4,5-c]pyridin-2(3H)-one]: the EC50 in the data set on rgRSV224 virus is 1.56 nM. In data set [1], this compound returned a CC50 at 3 days greater than 9840 nM.

On to `O=c1n(Cc2cc3ccc(Cl)cc3n2CCCCO)c2cnccc2n1C1CC1` [Compound 16, 3-((6-Chloro-1-(4-hydroxybutyl)-1H-indol-2-yl)methyl)-1-cyclopropyl-1H-imidazo[4,5-c]pyridin-2(3H)-one], for which the EC50 in the data set on rgRSV224 virus came to 124 nM. This compound displayed a CC50 at 3 days in data set [1] greater than 9840 nM.

On to `CS(=O)(=O)CCCn1c(Cn2c(=O)n(C3CC3)c3ccncc32)cc2cc(Cl)ccc21` [Compound 1, 3-((5-Chloro-1-(3-(methylsulfonyl)propyl)-1H-indol-2-yl)methyl)-1-cyclopropyl-1H-imidazo[4,5-c]pyridin-2(3H)-one], for which the EC50 with rgRSV224 virus is 0.286 nM. In addition, the CC50 at 3 days in data set [1] was greater than 9840 nM.

For `CC(C)CCn1c(Cn2c(=O)n(C3CC3)c3ccncc32)c(C(=O)NS(C)(=O)=O)c2ccccc21` [Compound 19, 2-((1-cyclopropyl-2-oxo-1H-imidazo[4,5-c]pyridin-3 (2H)-yl)methyl)-1-isopentyl-N-(methylsulfonyl)-1H-indole-3-carboxamide], the EC50 in the data set with rgRSV224 virus was found to be 3210 nM. Moreover, the CC50 at 3 days in data set [1] (setting [2]) was greater than 9840 nM.

As for `O=c1n(Cc2cc3cc(Br)ccc3n2CCCCO)c2cnccc2n1C1CC1` [Compound 4, 3-((5-bromo-1-(4-hydroxybutyl)-1H-indol-2-yl)methyl)-1-cyclopropyl-1H-imidazo[4,5-c]pyridin-2(3H)-one], in the data set on rgRSV224 virus, the EC50 was determined as 1.12 nM. Besides, the CC50 at 3 days in data set [1] (setting [2]) was found to be 48700 nM.

As to `N#CCCCCn1c(Cn2c(=O)n(C3CC3)c3ccncc32)cc2cc(Br)ccc21` [Compound 3, 5-((5-bromo-2-(1-cyclopropyl-2-oxo-1H-imidazo[4,5-c]pyridin-3(2H)-yl)methyl)-1H-indol-1-yl)pentanenitrile], the EC50 with rgRSV224 virus was determined as 0.452 nM. The CC50 at 3 days in data set [1] was greater than 9840 nM.

Regarding `COc1ccc2c(c1)cc(Cn1c(=O)n(C3CC3)c3ccncc31)n2CCCCO` [Compound 10, 1-Cyclopropyl-3-((1-(4-hydroxybutyl)-5-methoxy-1H-indol-2-yl)methyl)-1H-imidazo[4,5-c]pyridin-2(3H)-one], the EC50 in the data set on rgRSV224 virus is 38.3 nM. In data set [1], this compound came in with a CC50 at 3 days greater than 9840 nM.
